Measured values reported in publication PMC5834492, “Antimycobacterial drug discovery using Mycobacteria-infected amoebae identifies anti-infectives and new molecular targets” (Scientific Reports, 2018).
Where two headings read alike, the source gives them in different places.

Columns and labels:
M. marinum GFP = assay type: cell-based, Mycobacterium marinum; conditions: 10 µM; antibiotic assay
[1] = system: M. marinum in BV2 microglial cells; assay type: cell-based, Mycobacterium marinum
Mtb H37Rv in THP-1 = system: Mtb H37Rv in THP-1; design: method as in Sorrentino et al, 2015; conditions: ref Sorrentino et al, 2015, cited from earlier work; for Extracellular MIC90/ Inracellular MIC90: ratio
Mtb H37Rv = system: Mtb H37Rv; design: method as in Sorrentino et al, 2015; conditions: ref Sorrentino et al, 2015; cited from earlier work
M. marinum luxCDABE = assay type: cell-based, Mycobacterium marinum; conditions: 10 µM
D. discoideum GFP-ABD = conditions: 10 µM
[2] = system: M. marinum in A. castellanii; assay type: cell-based, Mycobacterium marinum; conditions: 10 µM
[3] = THP1 / Mtb H37Rv infection assay

Compound	M. marinum GFP normalised growth, control=1.00, mean (M. marinum GFP)	IC50 [1] [µM]	BV2 / M. marinum normalised growth, control=1.00, mean ([1]; 10 µM)	hit in BV2/M. marinum assay True/False ([1]; 10 µM)	Intracelullar MIC90 in THP-1 (Mtb H37Rv in THP-1; Mtb H37Rv-infected THP1 cells) [µM]	Intracelullar MIC90 in THP-1 (Mtb H37Rv in THP-1; [3]) [µM]	Extracellular MIC90/ Inracellular MIC90 (Mtb H37Rv in THP-1)	Extracellular MIC90 (Mtb H37Rv) [µM]	M. marinum luxCDABE normalised growth, control = 1.00, mean (M. marinum luxCDABE)	M. marinum luxCDABE normalised growth, control=1.00, mean (M. marinum luxCDABE)	D. discoideum GFP-ABD normalised growth, control=1.00, mean (D. discoideum GFP-ABD)	A. castellanii / M. marinum normalised growth, control=1.00, mean [2]	Hits A. castellanii/M. marinum assay True/False [2]	anti-infective properties in microglial cell (BV2) infection assay ([1]; 10 µM)	anti-infective properties in A. castellanii infection assay [2]
O=C(C=Cc1cccs1)N1CCN(Cc2ccc3c(c2)OCO3)CC1 [GW861072X]	0.05	7.99	0.48	TRUE	0.61	0.61	0.49	0.3	0,00	0.00	0.68	0.54	FALSE	–	–
COc1ccc2sc(Nc3nc(-c4ccccn4)cs3)nc2c1 [GSK690382A]	0.98	11.9	0.85	–	–	–	–	–	–	0.00	1.25	1.07	–	–	–
Cc1n[nH]c(C)c1S(=O)(=O)NCc1nc(NCCCc2ccccc2)c2ccccc2n1 [GSK2059310A]	0.46	4.65	0.57	–	–	5.55	0.32	1.8	–	0.00	0.84	1.06	–	–	–
O=C(c1cc2c(s1)CCC2)N1CCN(Cc2ccc3c(c2)OCO3)CC1 [GSK1731114A]	0.30	9.43	0.81	–	–	5.55	0.95	5.3	–	0.085	0.44	0.92	–	–	–
Cc1ccc2nc(C(F)(F)F)c(C(=O)NCc3cccc(OC(C)C)c3)n2c1 [GSK1829733A]	0.09	3.35	0.69	–	–	1.85	1.13	2.1	–	0.00	1.05	0.68	–	–	–
CN1CCN(c2ccc(C(F)(F)F)cc2NC(=O)c2ccccn2)CC1 [GSK1750922A]	0.91	5.07	0.94	–	–	50	0.04	1.9	–	1.00	0.29	0.93	–	–	–
Br.Cc1ccccc1OCCCON1C(=N)N=C(N)NC1(C)C [BRL-8903SA]	0.06	4.27	0.52	–	–	16.65	0.23	3.8	–	0.00	0.88	2.27	–	–	–
Cc1ccccc1CN1CCC(O)(c2ccc(Cl)c(C(F)(F)F)c2)CC1 [GSK1985270A]	0.09	4.88	0.45	TRUE	0.21	0.21	20	4.2	0,00	0.00	0.99	-0.06	TRUE	strong anti-infective properties	strong anti-infective properties
C=CCNc1nc(SC)nc2ccccc12 [GSK353071A]	0.09	4.77	0.53	–	–	1.85	1.73	3.2	–	0.095	0.92	0.77	–	–	–
Cn1ccnc1CNCCS(=O)(=O)c1cccc(Nc2ccc(-c3cccc(F)c3)cn2)c1 [GSK1826247A]	0.98	7.73	0.98	–	–	0.61	7.7	4.7	–	0.00	0.90	1.14	–	–	–
